# From US20050101595A1, “N-containing cycloalkyl-substituted amino-thiazole derivatives and pharmaceutical compositions for inhibiting cell proliferation and methods for their use” (PFIZER INC., priority 2003, published 2005)
# Where a name gives a salt, the structure may show the parent alone. Read-outs that look alike come from different tables or passages of the source.
# Tests used:
# CDK2/Cyclin A = CDK2/Cyclin A (Homo sapiens, UniProt P24941); assay: Inhibition of CDK2/Cyclin A Retinoblastoma Kinase Activity; format: biochemical; conditions: apparent Ki, CDK2/proteolyzed cyclin A, Rb fragment substrate, 25 μM ATP
# Summary of the method: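 CDK2 (10 or 19 nM), insect-cell expressed, gel-filtration purified with truncated cyclin A; Rb fragment substrate; 25 μM ATP; 10 mM HEPES pH 7.4, 10 mM MgCl2; 30° C, 60 or 75 min; EDTA stop; phosphocellulose/nitrocellulose capture, phosphorimager. % inhibition vs DMSO control, no-enzyme background subtracted.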
# [1] = target: human CDK4 and genetically truncated (1-264) cyclin D3 (Homo sapiens, UniProt P11802); assay: Inhibition of CDK4/Cyclin D Retinoblastoma Kinase Activity; format: biochemical; conditions: apparent Ki, CDK4/truncated cyclin D3, Rb fragment substrate, 25 μM ATP
# human CDK4 and genetically truncated (1-264) cyclin D3, sequence (P11802 whole entry, the tested form may be a part): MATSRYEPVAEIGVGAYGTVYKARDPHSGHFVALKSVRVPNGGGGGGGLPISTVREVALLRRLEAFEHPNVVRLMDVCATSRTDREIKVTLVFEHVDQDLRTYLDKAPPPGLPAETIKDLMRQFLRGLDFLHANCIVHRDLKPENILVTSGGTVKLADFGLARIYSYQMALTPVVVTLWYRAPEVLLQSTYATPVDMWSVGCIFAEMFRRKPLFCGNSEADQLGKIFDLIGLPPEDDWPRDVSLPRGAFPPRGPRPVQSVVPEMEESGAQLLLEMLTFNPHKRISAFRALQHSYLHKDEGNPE
# human CDK4 and genetically truncated (1-264) cyclin D3, sequence (P30281 1-264 partner): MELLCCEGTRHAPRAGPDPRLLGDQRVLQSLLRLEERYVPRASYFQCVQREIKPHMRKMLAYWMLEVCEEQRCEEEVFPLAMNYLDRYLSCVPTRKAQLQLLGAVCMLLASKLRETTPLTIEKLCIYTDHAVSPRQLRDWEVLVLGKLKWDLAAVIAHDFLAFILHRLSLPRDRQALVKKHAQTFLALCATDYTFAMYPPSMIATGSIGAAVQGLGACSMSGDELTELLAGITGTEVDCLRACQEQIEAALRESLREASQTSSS
# Summary of the method: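 The enzyme complex (5 nM), expressed in co-infected insect cells, was incubated with recombinant Rb fragment, 25 μM radiolabelled ATP and 2% DMSO at 30 °C. Reactions were stopped with EDTA after 20 minutes, or 60 minutes for tight-binding inhibitors. Apparent Ki values came from competitive inhibition fits.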
# HCT-116 cell line = assay: Inhibition of cell growth, tetrazolium salt (MTT) assay; format: cell-based; conditions: Homo sapiens, HCT-116, 120 h, MTT, three to five days, read-out: HCT-116 IC50
# Summary of the method: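 Growth inhibition by MTT reduction at 540 nm (0.2 mg/mL, 4 h at 37° C, formazan dissolved in DMSO), normalized to cells given only 0.5% v/v DMSO. HCT-116 cultures in McCoy's 5A were dosed 4 h post-plating and kept three to five days at 37° C, 5% CO2.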
Ki (CDK2/Cyclin A) [nM],Ki [1] [nM],IC50 (HCT-116 cell line; first HCT-116 column (c4)) [nM],IC50 (HCT-116 cell line; second HCT-116 column (c5)) [nM],SMILES
7.9,2.9,3300,> 5000,"CC1(C)CN(CCCS(=O)(=O)N2CCC(Nc3nc(N)c(C(=O)c4c(F)cccc4F)s3)CC2)CCN1 [Example K14, 1-(4-Amino-2-{1-[3-(3,3-dimethylpiperazin-1-yl)propane-1-sulfonyl]-piperidin-4-ylamino}-thiazol-5-yl)-1-(2,6-difluoro-phenyl)-methanone.]"
8.7,2.5,1300,5000,"CCN1CCN(CCCS(=O)(=O)N2CCC(Nc3nc(N)c(C(=O)c4c(F)cccc4F)s3)CC2)CC1 [Example K15, 1-(4-Amino-2-{1-[3-(4-ethylpiperazin-1-yl)propane-1-sulfonyl]-piperidin-4-ylamino}-thiazol-5-yl)-1-(2,6-difluoro-phenyl)-methanone.]"
7.8,2.8,1800,5000,"CN1CCN(CCCS(=O)(=O)N2CCC(Nc3nc(N)c(C(=O)c4c(F)cccc4F)s3)CC2)CC1 [Example K16, 1-(4-Amino-2-{1-[3-(4-methylpiperazin-1-yl)propane-1-sulfonyl]-piperidin-4-ylamino}-thiazol-5-yl)-1-(2,6-difluoro-phenyl)-methanone.]"
2.5,3.4,890,2200,"N#CCCCS(=O)(=O)N1CCC(Nc2nc(N)c(C(=O)c3c(F)cccc3F)s2)CC1 [Example K17, 1-(4-{4-Amino-5-[1-(2,6-difluorophenyl)methanoyl]-thiazol-2-ylamino}-piperidine-1-sulfonyl)butyronitrile.]"
3.1,18,> 5000,> 5000,"Nc1nc(NC2CCN(S(=O)(=O)CCCc3nnn[nH]3)CC2)sc1C(=O)c1c(F)cccc1F [Example K18, 1-(4-Amino-2-{1-[3-(1H-tetrazol-5-yl)-propane-1-sulfonyl]-piperidin-4-ylamino}-thiazol-5-yl)-1-(2,6-difluoro-phenyl)-methanone.]"
1.3,2,810,> 5000,"Nc1nc(NC2CCN(S(=O)(=O)CCCN3CCC3)CC2)sc1C(=O)c1c(F)cccc1F [Example K19, 1-{4-Amino-2-[1-(3-azetidin-1-yl-propane-1-sulfonyl)-piperidin-4-ylamino]-thiazol-5-yl}-1-(2,6-difluoro-phenyl)-methanone.]"
4.8,1.5,2000,5000,"CC(=O)N(C)C1CCN(CCCS(=O)(=O)N2CCC(Nc3nc(N)c(C(=O)c4c(F)cccc4F)s3)CC2)C1 (stereo not shown) [Example K20, N-{1-[3-(4-{4-Amino-5-[1-(2,6-difluoro-phenyl)-methanoyl]-thiazol-2-ylamino}-piperidine-1-sulfonyl)-propyl]-pyrrolidin-3-yl}-N-methyl-acetamide]"
2.7,4.4,> 500,> 500,"Nc1nc(NC2CCN(S(=O)(=O)CCCSc3ccccn3)CC2)sc1C(=O)c1c(F)cccc1F [Example K21, 1-(4-Amino-2-{1-[3-(pyridin-2-ylsulfanyl)-propane-1-sulfonyl]-piperidin-4-ylamino}-thiazol-5-yl)-1-(2,6-difluoro-phenyl)-methanone]"
4.8,7.3,> 500,> 500,"Cn1ccnc1SCCCS(=O)(=O)N1CCC(Nc2nc(N)c(C(=O)c3c(F)cccc3F)s2)CC1 [Example K22, 1-(4-Amino-2-{1-[3-(1-methyl-1H-imidazol-2-ylsulfanyl)-propane-1-sulfonyl]-piperidin-4-ylamino}-thiazol-5-yl)-1-(2,6-difluoro-phenyl)-methanone.]"
2.8,3,460,> 500,"Nc1nc(NC2CCN(S(=O)(=O)CCCSc3ccncc3)CC2)sc1C(=O)c1c(F)cccc1F [Example K23, 1-(4-Amino-2-{1-[3-(pyridin-4-ylsulfanyl)-propane-1-sulfonyl]-piperidin-4-ylamino}-thiazol-5-yl)-1-(2,6-difluoro-phenyl)-methanone.]"
5.9,2,> 50,> 50,"CN(C)CCSCCCS(=O)(=O)N1CCC(Nc2nc(N)c(C(=O)c3c(F)cccc3F)s2)CC1 [Example K24, 1-(4-Amino-2-{1-[3-(2-dimethylamino-ethylsulfanyl)-propane-1-sulfonyl]-piperidin-4-ylamino}-thiazol-5-yl)-1-(2,6-difluoro-phenyl)-methanone.]"
4.4,1.4,880,2600,"COCCNCCS(=O)(=O)N1CCC(Nc2nc(N)c(C(=O)c3c(F)cccc3F)s2)CC1 [Example K25, (4-Amino-2-{1-[2-(2-methoxy-ethylamino}-ethanesulfonyl]-piperidin-4-ylamino}-thiazol-5-yl)-(2,6-difluoro-phenyl)-methanone Trifluoroacetic Acid Salt.]"
10,2.8,> 5000,> 5000,"Nc1nc(NC2CCN(S(=O)(=O)CCNCCN3CCCC3)CC2)sc1C(=O)c1c(F)cccc1F [Example K28, (4-Amino-2-{1-[2-(2-pyrrolidin-1-yl-ethylamino)-ethanesulfonyl]-piperidin-4-ylamino}-thiazol-5-yl)-(2,6-difluoro-phenyl)-methanone Trifluoroacetic Acid Salt.]"
3.7,1.6,160,510,"Nc1nc(NC2CCN(S(=O)(=O)CCN3CCCC3c3ccccc3)CC2)sc1C(=O)c1c(F)cccc1F (stereo not shown) [Example K29, Trifluoroacetic Acid Salt]"
9.4,2.4,190,620,"CN(CCS(=O)(=O)N1CCC(Nc2nc(N)c(C(=O)c3c(F)cccc3F)s2)CC1)C1CCCC1 [Example K30, (4-Amino-2-{1-[2-(cyclopentyl-methyl-amino)-ethanesulfonyl]-piperidin-4-ylamino}-thiazol-5-yl)-(2,6-difluoro-phenyl)-methanone Trifluoroacetic Acid Salt.]"
5.5,4.3,> 5000,> 5000,"Nc1nc(NC2CCN(S(=O)(=O)CCNC3CCS(=O)(=O)C3)CC2)sc1C(=O)c1c(F)cccc1F (stereo not shown) [Example K31, (4-Amino-2-{1-[2-(1,1-dioxo-tetrahydro-1-lamda-6-thiophen-3-ylamino)-ethanesulfonyl]-piperidin-4-ylamino}-thiazol-5-yl)-(2,6-difluoro-phenyl)-methanone Trifluoroacetic Acid Salt.]"
6.2,2.1,190,1400,"Nc1nc(NC2CCN(S(=O)(=O)CCN3CC=CCC3)CC2)sc1C(=O)c1c(F)cccc1F [Example K32, (4-Amino-2-{1-[2-(3,6-dihydro-2H-pyridin-1-yl)-ethanesulfonyl]-piperidin-4-ylamino}-thiazol-5-yl)-(2,6-difluoro-phenyl)-methanone Trifluoroacetic Acid Salt.]"
5.6,0.64,650,5000,"CNCCS(=O)(=O)N1CCC(Nc2nc(N)c(C(=O)c3c(F)cccc3F)s2)CC1 [Example K33, {4-Amino-2-[1-(2-methylamino-ethanesulfonyl)-piperidin-4-ylamino]-thiazol-5-yl}-(2,6-difluoro-phenyl)-methanone Trifluoroacetic Acid Salt.]"
6,5.4,280,1200,"Nc1nc(NC2CCN(S(=O)(=O)CCn3cccc3)CC2)sc1C(=O)c1c(F)cccc1F [Example K34, {4-Amino-2-[1-(2-pyrrol-1-yl-ethanesulfonyl)-piperidin-4-ylamino]-thiazol-5-yl}-(2,6-difluoro-phenyl)-methanone Trifluoroacetic Acid Salt.]"
3,1.1,140,450,"Nc1nc(NC2CCN(S(=O)(=O)CCN3CCCC3)CC2)sc1C(=O)c1c(F)cccc1F [Example K35, 1-{4-Amino-2-[1-(2-pyrrolidin-1-yl-ethanesulfonyl)-piperidin-4-ylamino]-thiazol-5-yl}-1-(2,6-difluoro-phenyl)-methanone.]"
7.5,6.6,650,1900,"Nc1nc(NC2CCN(S(=O)(=O)CCN3CC=CC3)CC2)sc1C(=O)c1c(F)cccc1F [Example K36, (4-Amino-2-{1-[2-(2,5-dihydro-pyrrol-1-yl)-ethanesulfonyl]-piperidin-4-ylamino}-thiazol-5-yl)-(2,6-difluoro-phenyl)-methanone.]"
7,3.2,310,1300,"CN(CCS(=O)(=O)N1CCC(Nc2nc(N)c(C(=O)c3c(F)cccc3F)s2)CC1)c1ccccc1 [Example K37, (4-Amino-2-{1-[2-(methyl-phenyl-amino)-ethanesulfonyl]-piperidin-4-ylamino}-thiazol-5-yl)-(2,6-difluoro-phenyl)-methanone Trifluoroacetic Acid Salt.]"
